Key:
Jurkat E6.1 [1] = assay: Cytotoxicity against human Jurkat E6.1 cells assessed as reduction in cell growth measured after 48 hrs by MTT assay; type: functional, cell-based; settings: Jurkat E6.1, 48 h
Histone deacetylase = assay: Inhibition of HDAC (unknown origin) using Fluoro-Substrate Peptide as substrate by fluorescence assay; type: protein assay, Homo sapiens
U-937 = assay: Cytotoxicity against human U-937 cells assessed as reduction in cell viability; type: functional, cell-based
Jurkat E6.1 [2] = assay: Cytotoxicity against human Jurkat E6.1 cells assessed as reduction in cell viability; type: functional, cell-based
Histone deacetylase 8 [3] = target: T1, Histone deacetylase 8 (Homo sapiens, UniProt Q9BY41); assay: Inhibition of HDAC8 (unknown origin) by fluorescence based assay
T1 sequence (Q9BY41 whole entry): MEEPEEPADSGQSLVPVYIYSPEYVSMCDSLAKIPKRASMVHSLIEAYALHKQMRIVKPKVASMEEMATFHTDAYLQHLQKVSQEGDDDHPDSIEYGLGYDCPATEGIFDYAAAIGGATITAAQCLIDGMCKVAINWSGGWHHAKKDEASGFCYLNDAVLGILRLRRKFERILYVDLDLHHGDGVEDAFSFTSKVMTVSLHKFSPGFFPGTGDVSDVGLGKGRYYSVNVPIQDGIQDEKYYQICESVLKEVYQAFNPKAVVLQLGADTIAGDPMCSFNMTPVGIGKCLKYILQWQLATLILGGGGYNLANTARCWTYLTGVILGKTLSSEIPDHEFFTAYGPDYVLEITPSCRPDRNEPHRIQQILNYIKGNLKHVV

MOLT-4 [4] = assay: Cytotoxicity against human MOLT-4 cells assessed as reduction in cell viability; type: functional, cell-based
HeLa = assay: Growth inhibition of human HeLa cells incubated for 72 hrs by trypan blue assay; type: functional
MCF7 = assay: Antiproliferative activity against human MCF7 cells assessed as reduction in cell viability incubated for 24 hrs by MTT assay; type: functional, cell-based; settings: MCF7, 24 h
MDA-MB-231 = assay: Antiproliferative activity against human MDA-MB-231 cells assessed as reduction in cell viability incubated for 24 hrs by MTT assay; type: functional, cell-based; settings: MDA-MB-231, 24 h
Jurkat [5] = assay: Cytotoxicity against human Jurkat cells assessed as reduction in cell viability measured after 24 hrs by Celltiter-Glo assay; type: functional, cell-based
Histone deacetylase 8 [6] = target: T1, Histone deacetylase 8; assay: Inhibition of HDAC8 (unknown origin) using as Fluor-de-lys substrate by fluorescence based analysis
[7] = target: Matrix metalloproteinase-9 (Homo sapiens, UniProt P14780); assay: Inhibition of MMP-9 (unknown origin)
[8] = target: Matrix metalloproteinase-14 (Homo sapiens, UniProt P50281); assay: Inhibition of MMP-14 (unknown origin)
[9] = target: Macrophage metalloelastase (Homo sapiens, UniProt P39900); assay: Inhibition of MMP-12 (unknown origin)
Neutrophil collagenase = Neutrophil collagenase (Homo sapiens, UniProt P22894); assay: Inhibition of MMP-8 (unknown origin)
[10] = target: 72 kDa type IV collagenase (Homo sapiens, UniProt P08253); assay: Inhibition of MMP-2 (unknown origin)
Histone deacetylase 4 = Histone deacetylase 4 (Homo sapiens, UniProt P56524); assay: Inhibition of HDAC4 (unknown origin)
Jurkat [11] = assay: cells; type: functional; settings: Homo sapiens
Description: Growth inhibition of human Jurkat cells

MOLT-4 [12] = assay: cells; type: functional; settings: Homo sapiens, time 24 hrs
Description: Growth inhibition of human MOLT-4 cells measured after 24 hrs by MTT assay

[13] = target: T2, Polyamine deacetylase HDAC10 (Homo sapiens, UniProt Q969S8); assay: Inhibition of HDAC10 (unknown origin)
T2 sequence (Q969S8 whole entry): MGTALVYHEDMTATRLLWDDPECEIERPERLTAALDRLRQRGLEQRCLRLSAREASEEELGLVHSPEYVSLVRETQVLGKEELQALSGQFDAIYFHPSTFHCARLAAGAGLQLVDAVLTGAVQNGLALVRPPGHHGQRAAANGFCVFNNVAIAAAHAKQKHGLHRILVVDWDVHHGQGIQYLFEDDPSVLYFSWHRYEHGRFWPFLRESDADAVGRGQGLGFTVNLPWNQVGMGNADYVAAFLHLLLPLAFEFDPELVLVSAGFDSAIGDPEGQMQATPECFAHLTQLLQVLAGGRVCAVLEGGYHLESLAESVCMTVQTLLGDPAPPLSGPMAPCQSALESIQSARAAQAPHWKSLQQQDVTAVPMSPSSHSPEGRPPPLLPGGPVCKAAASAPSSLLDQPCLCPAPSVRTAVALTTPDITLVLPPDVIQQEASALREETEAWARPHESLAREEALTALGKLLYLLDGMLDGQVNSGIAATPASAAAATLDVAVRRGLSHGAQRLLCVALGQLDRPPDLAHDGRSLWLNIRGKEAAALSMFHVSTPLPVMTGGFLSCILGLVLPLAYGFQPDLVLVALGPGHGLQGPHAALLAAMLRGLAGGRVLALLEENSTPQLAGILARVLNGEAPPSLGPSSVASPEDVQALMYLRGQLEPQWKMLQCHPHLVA

THP-1 = assay: cells; type: functional; settings: Homo sapiens
Description: Growth inhibition of human THP-1 cells

72 kDa type IV collagenase, sequence (P08253 whole entry): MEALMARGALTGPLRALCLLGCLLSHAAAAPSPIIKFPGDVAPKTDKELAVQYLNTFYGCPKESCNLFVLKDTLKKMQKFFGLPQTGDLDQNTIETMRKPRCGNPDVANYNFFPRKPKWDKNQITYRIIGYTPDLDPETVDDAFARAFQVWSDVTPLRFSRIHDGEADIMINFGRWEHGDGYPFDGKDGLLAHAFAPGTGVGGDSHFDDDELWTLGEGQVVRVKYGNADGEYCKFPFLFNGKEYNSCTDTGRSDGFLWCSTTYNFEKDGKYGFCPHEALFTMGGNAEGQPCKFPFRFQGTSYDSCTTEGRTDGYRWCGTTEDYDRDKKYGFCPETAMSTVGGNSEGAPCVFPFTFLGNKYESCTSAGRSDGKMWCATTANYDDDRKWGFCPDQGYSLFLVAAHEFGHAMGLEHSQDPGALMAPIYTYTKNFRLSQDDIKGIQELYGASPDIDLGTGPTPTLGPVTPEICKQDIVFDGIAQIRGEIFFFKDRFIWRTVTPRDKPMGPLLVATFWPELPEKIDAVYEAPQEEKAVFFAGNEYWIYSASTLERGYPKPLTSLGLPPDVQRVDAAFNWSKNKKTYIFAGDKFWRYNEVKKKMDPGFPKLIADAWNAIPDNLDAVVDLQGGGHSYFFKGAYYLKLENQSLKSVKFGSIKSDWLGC
Histone deacetylase 4, sequence (P56524 whole entry): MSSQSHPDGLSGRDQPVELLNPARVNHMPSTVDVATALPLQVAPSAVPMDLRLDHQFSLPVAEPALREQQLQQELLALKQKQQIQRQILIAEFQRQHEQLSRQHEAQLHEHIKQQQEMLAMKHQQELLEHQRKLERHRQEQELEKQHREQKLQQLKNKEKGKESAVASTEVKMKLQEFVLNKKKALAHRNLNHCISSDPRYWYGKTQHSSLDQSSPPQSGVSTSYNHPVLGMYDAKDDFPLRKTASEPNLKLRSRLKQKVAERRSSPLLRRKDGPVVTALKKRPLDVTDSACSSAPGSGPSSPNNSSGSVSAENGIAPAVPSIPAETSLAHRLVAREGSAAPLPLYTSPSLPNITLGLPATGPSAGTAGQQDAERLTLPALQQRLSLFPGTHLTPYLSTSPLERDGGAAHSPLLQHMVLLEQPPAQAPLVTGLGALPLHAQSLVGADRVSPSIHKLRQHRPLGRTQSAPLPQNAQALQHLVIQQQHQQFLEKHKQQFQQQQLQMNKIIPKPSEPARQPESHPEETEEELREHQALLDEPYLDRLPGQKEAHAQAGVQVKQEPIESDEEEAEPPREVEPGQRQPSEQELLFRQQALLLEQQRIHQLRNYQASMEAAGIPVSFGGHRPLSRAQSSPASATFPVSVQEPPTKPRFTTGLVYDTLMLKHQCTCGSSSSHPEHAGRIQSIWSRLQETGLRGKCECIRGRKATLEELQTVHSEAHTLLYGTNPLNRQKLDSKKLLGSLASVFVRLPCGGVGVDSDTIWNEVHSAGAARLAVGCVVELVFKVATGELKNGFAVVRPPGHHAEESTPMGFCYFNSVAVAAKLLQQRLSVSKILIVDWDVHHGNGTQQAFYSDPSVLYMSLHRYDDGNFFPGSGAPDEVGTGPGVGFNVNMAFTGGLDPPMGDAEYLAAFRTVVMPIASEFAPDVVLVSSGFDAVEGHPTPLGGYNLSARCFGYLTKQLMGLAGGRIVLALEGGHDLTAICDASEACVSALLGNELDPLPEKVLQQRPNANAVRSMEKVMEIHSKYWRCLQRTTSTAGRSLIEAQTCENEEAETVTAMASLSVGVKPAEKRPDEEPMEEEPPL
Macrophage metalloelastase, sequence (P39900 whole entry): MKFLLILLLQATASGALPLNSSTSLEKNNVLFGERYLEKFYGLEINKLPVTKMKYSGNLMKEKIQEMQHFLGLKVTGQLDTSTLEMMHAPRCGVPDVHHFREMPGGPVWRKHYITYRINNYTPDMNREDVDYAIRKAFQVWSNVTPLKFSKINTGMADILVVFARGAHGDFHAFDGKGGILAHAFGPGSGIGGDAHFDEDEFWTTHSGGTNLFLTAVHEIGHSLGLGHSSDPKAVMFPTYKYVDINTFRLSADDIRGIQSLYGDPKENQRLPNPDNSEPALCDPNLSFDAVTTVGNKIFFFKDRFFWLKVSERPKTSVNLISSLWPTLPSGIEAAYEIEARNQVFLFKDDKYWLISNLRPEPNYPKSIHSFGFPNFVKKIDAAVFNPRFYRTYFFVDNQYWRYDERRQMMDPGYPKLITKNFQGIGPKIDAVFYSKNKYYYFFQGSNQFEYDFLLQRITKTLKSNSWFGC
Neutrophil collagenase, sequence (P22894 whole entry): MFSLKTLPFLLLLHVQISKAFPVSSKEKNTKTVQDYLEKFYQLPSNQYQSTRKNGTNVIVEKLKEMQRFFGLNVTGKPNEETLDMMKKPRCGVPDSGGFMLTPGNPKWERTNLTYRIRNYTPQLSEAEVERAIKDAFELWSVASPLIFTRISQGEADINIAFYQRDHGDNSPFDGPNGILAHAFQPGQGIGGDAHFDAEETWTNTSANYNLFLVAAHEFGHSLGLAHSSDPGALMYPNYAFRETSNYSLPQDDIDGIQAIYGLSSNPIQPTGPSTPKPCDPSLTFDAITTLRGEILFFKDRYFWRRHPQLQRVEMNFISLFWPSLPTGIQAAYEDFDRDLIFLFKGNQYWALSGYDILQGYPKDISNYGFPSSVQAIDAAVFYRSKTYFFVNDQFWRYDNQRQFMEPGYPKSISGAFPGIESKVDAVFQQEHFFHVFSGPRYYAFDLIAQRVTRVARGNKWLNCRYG
Matrix metalloproteinase-9, sequence (P14780 whole entry): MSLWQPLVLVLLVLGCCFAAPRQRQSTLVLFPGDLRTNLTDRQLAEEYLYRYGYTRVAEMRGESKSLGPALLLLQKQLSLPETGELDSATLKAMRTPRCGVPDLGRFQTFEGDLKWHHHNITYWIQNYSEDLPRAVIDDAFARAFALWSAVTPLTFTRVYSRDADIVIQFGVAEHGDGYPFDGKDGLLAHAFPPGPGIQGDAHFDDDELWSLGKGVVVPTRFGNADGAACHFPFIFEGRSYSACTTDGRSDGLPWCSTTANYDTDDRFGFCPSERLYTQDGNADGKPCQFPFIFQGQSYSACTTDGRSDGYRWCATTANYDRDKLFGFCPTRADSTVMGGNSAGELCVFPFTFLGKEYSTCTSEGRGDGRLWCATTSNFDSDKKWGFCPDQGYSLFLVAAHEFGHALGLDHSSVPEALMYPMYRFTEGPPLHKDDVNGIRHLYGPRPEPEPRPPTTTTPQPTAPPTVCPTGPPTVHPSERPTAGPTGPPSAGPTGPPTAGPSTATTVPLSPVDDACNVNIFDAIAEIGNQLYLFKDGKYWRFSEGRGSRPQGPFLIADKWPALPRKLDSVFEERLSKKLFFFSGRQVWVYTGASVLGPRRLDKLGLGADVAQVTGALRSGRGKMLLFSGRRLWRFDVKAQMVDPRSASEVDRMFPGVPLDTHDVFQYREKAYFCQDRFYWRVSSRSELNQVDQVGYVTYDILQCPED

In the case of `O=C(O)CC[C@H](NC(=O)Cc1ccc(Br)cc1)C(=O)NCc1ccc(F)cc1`, the IC50 (Jurkat E6.1 [1]) is reported as 1.62 µM, the IC50 (Histone deacetylase) is reported as > 10 µM and the IC50 (U-937) is reported as > 35 µM. The IC50 (Jurkat E6.1 [2]) was < 35 µM, the IC50 (Histone deacetylase 8 [3]) was ≤ 10 µM and the IC50 (MOLT-4 [4]) was > 35 µM.
Compound `COc1ccc(/C=C/C(=O)NO)c(-c2ccc3c(c2)OCO3)c1` has a GI50 (HeLa) of 2 µM, an IC50 (MCF7) of 7.7 µM and an IC50 (MDA-MB-231) of 9.5 µM.
With `O=C(CCCCCN1C(=O)c2cccc3cccc(c23)C1=O)NO` the IC50 (Jurkat [5]) was 6.1 µM.
With `O=C(O)CC[C@H](NC(=O)Cc1ccc(Br)cc1)C(=O)NCc1ccc([N+](=O)[O-])cc1` the IC50 (Histone deacetylase 8 [6]) was 2.89 µM, the IC50 [7] was 4.83 µM and the IC50 (Histone deacetylase) was > 10 µM. The IC50 (U-937) was ≤ 35 µM, the IC50 [8] was 56.6 µM and the IC50 [9] was 138 µM. The IC50 (Jurkat E6.1 [2]) was ≤ 35 µM, the IC50 (Histone deacetylase 8 [3]) was ≤ 10 µM and the IC50 (Neutrophil collagenase) was 206 µM. For the same compound, the IC50 [10] was 6.4 µM and the IC50 (MOLT-4 [4]) was ≤ 35 µM.
With `O=C(/C=C/c1cccc(S(=O)(=O)Nc2ccccc2)c1)NO` [BELINOSTAT] the IC50 (Histone deacetylase 4) was 0.015 µM, the GI50 (Jurkat [11]) was 0.11 µM and the GI50 (MOLT-4 [12]) was 0.12 µM. It also gave an IC50 [13] of 0.059 µM and a GI50 (THP-1) of 0.075 µM.

— ChEMBL document CHEMBL5625174, “Are inhibitors of histone deacetylase 8 (HDAC8) effective in hematological cancers especially acute myeloid leukemia (AML) and acute lymphoblastic leukemia (ALL)?” (Eur J Med Chem, 2023)
